Measured values as given in PMC8329197, “Compounds targeting OSBPL7 increase ABCA1-dependent cholesterol efflux preserving kidney function in two models of kidney disease” (Nature Communications, 2021).
Values joined by “and” are separate entries in the source; they are usually repeats but may differ in a detail not shown here. Equal values may be shown once.

Assays:
[1] = test system: Adriamycin (ADR)-induced nephropathy in Balb/c mice; assay: ADR nephropathy: WBC, hemoglobin, hematocrit, ALT, AST; format: in vivo, mouse; settings: for Alanine Aminotransferase (ALT) / Aspartate Aminotransferase (AST) / Hematocrit HTC / White Blood Cells WBC: individual mouse values
ABCA1 protein = assay: Cell fractionation: ABCA1 in plasma membrane and microsomal fractions of podocytes; format: cell-based, human; settings: podocytes; Cpd A 5 µM, Cpd G 10 µM
Experimental: Lysates, or cell fractions were incubated in Laemmli buffer at 55 °C for 10 min under reducing conditions. A total of 30 μg of protein from cell lysates or one-third of the volume collected in cell fraction preparations was separated by SDS-PAGE in 4–20% gradient gels (Biorad) and proteins were then transferred to PVDF membranes. After blocking with 5% TBS-milk, membranes were probed with primary antibodies overnight at 4 °C. The following primary antibodies were used: mouse anti-ABCA1 (Abcam; 1:1000), rabbit anti-GAPDH antibody (Millipore; 1:10,000), mouse anti-actin (CP01, Millipore 1:10,000), anti-MEK, anti-ERp72, anti-V5 and anti-Na^+/K^+ ATPase (Cell Signaling; all 1:1000), and rabbit anti-OSBPL7 (Sigma; 1:1000). After washing, membranes were incubated with anti-rabbit or and anti-mouse IgG-HRP antibodies (Promega, 1:10,000). Signals were detected after incubation with Westernbright ECL HRP substrate (Advansta) and luminescence signals were captured with Azure C600 Gel Imaging workstation (Azure Biosystems Inc, USA) or X-ray films.
Differentiated podocytes were treated with compounds Cpd C (1 μM), Cpd A (5 μM), or Cpd G (10 μM) for 18 h, washed and then harvested in ice-cold PBS. Cells were centrifuged at 1000 × g for 5 min, the supernatant was carefully removed, and the pellet resuspended in hypotonic buffer (15 mM KCl, 1.5 mM MgCl2, 10 mM HEPES and 1 mM DTT) supplemented with a protease inhibitor cocktail (Roche). Cells were disrupted with a glass douncer, and sucrose was added to achieve final concentration of 227 mM. Cell lysates were centrifuged at 1000 × g for 30 min at 4 °C. The supernatant was then transferred to a new tube and centrifuged at 10,000 × g for 15 min at 4 °C. The pellet, containing the microsomal fraction was collected and the supernatant was transferred to a new tube and centrifuged at 100,000 × g for 1 h at 4 °C. The pelleted plasma membrane fraction was collected and the supernatant, containing the organelle-free cytosolic fraction, was concentrated in Vivaspin 500 filter columns. Western blot was performed using antibodies for ABCA1 and specific markers for each membrane fraction as described above. Na^+/K^+ ATPase was used to identify the plasma membrane fraction, ERp72 as a marker for the microsomal-enriched fraction, and MEK as the control for the non-membranous cytosolic fraction.

[2] = test system: Adriamycin (ADR)-induced nephropathy in Balb/c mice; assay: Adriamycin-induced nephropathy, main study: albumin/creatinine ratio and body weight; settings: for ACR, median / Weight Change (as % of weight at day 0), Median / Weight Change (as % of weight at day 0): Cpd A 30, Cpd G 100, Cpd C 10 mg/Kg; for ACR, median: group median; for Weight (d28): animal weight when therapy finished; for Weight (d28) / Weight Change (as % of weight at day 0) / ACR values (mg Albumin / mg Creatinine): single animals; for Weight Change (as % of weight at day 0), Median / Weight Change (as % of weight at day 0): day 28 after ADR; for ACR values (mg Albumin / mg Creatinine): spot urine 28 days after ADR, oral daily Cpd A 30, Cpd G 100, Cpd C 10 mg/Kg; for Times lower ACR: vs ADR+V, 28 days, Cpd A 30, Cpd G 100 mg/kg/day
[3] = test system: Adriamycin (ADR)-induced nephropathy in Balb/c mice; assay: ADR nephropathy: liver total cholesterol, cholesterol esters, triglycerides; format: in vivo, mouse; settings: for LIVER CHOLESTEROL ESTERS / LIVER TOTAL CHOLESTEROL / LIVER TRIGLICERIDES: ADR model, individual animals
[4] = ADR-induced nephropathy, 28 days treatment, 25th quartile
[5] = ADR-induced nephropathy, 28 days treatment, 75th quartile
[6] = ADR-induced nephropathy, 28 days treatment, group maximum
[7] = ADR-induced nephropathy, 28 days treatment, group median
[8] = ADR-induced nephropathy, 28 days treatment, group minimum
[9] = ADR-induced nephropathy, 28 days treatment
[10] = 28 days after ADR, Cpd G 100 mg/Kg

O=C(N[C@@H]1CCCC[C@H]1O)c1ccc(OCC(F)(F)F)c(-c2ccc(Cl)c(Cl)c2)n1 [Cpd A]
ALT, Median (IQR) ([1]; ADR-induced nephropathy): 256 (90.3-625) U/L
ALT, Range ([1]; ADR-induced nephropathy): 88-766 U/L
AST, Median (IQR) ([1]; ADR-induced nephropathy): 326 (213-500) U/L
AST, Range ([1]; ADR-induced nephropathy): 200-685 U/L
HTC, Median (IQR) ([1]; ADR-induced nephropathy): 54 (50-56) %
HTC, Range ([1]; ADR-induced nephropathy): 47-62%
Hgb, Median (IQR) ([1]; ADR-induced nephropathy): 13.6 g/dL
Hgb, Range ([1]; ADR-induced nephropathy): 12.1 to 15.5 g/dL
WBC, Range ([1]; ADR-induced nephropathy): 3.7-7.0 x103cells/µL
ALT, QR(25) [1, 4]: 130.75 U/L
AST, QR(25) [1, 4]: 232.75 U/L
HTC, QR(25) [1, 4]: 51.25%
Hgb, QR(25) [1, 4]: 13.1 g/dL
WBC, QR(25) [1, 4]: 3.925 x 10^3 cells/ul
ALT, QR(75) [1, 5]: 499.25 U/L
AST, QR(75) [1, 5]: 421.5 U/L
HTC, QR(75) [1, 5]: 55.5%
Hgb, QR(75) [1, 5]: 13.9 g/dL
WBC, QR(75) [1, 5]: 7.375 x 10^3 cells/ul
ALT, Max [1, 6]: 766 U/L
AST, Max [1, 6]: 685 U/L
HTC, Max [1, 6]: 62%
Hgb, Max [1, 6]: 15.5 g/dL
WBC, Max [1, 6]: 8.2 x 10^3 cells/ul
ALT, Median [1, 7]: 256.5 U/L
AST, Median [1, 7]: 326 U/L
HTC, Median [1, 7]: 54%
Hgb, Median [1, 7]: 13.6 g/dL
WBC, Median [1, 7]: 5.5 x 10^3 cells/ul
ALT, Min [1, 8]: 88 U/L
AST, Min [1, 8]: 200 U/L
HTC, Min [1, 8]: 47%
Hgb, Min [1, 8]: 12.1 g/dL
WBC, Min [1, 8]: 3.7 x 10^3 cells/ul
Alanine Aminotransferase (ALT) [1, 9]: 766 U/dL and 263 U/dL and 250 U/dL and 88 U/dL and 91 U/dL and 578 U/dL
Aspartate Aminotransferase (AST) [1, 9]: 685 U/dL and 372 U/dL and 280 U/dL and 200 U/dL and 217 U/dL and 438 U/dL
Hematocrit HTC [1, 9]: 58% and 54% and 62% and 47% and 56% and 52% and 48% and 51%
White Blood Cells WBC [1, 9]: 7.7 x 10^3 cells/ul and 8.2 x 10^3 cells/ul and 4.7 x 10^3 cells/ul and 3.8 x 10^3 cells/ul and 4.3 x 10^3 cells/ul and 3.7 x 10^3 cells/ul and 7 x 10^3 cells/ul and 6.3 x 10^3 cells/ul and 7.5 x 10^3 cells/ul
ABCA1 at the plasma membrane (ABCA1 protein): increased ABCA1 at the plasma membrane
ABCA1 in microsomal fractions (ABCA1 protein): did not increase ABCA1 in microsomal fractions
Effect on weight loss ([2]; 28 days after ADR): substantially reduced weight loss
ACR, median ([2]; 28 days after ADR): 2.3 mg albumin/mg creatinine and 2.363 mg albumin/mg creatinine
Weight (d28) [2]: 19 and 21 and 18 and 15 and 20
Weight Change (as % of weight at day 0), Median [2]: 0%
Weight Change (as % of weight at day 0) [2]: 0% and -5.3% and -4.5% and -6.3% and -25% and 5.6%
ACR values (mg Albumin / mg Creatinine) [2]: 0.242 mg Albumin / mg Creatinine and 6.27 mg Albumin / mg Creatinine and 20.39 mg Albumin / mg Creatinine and 14.37 mg Albumin / mg Creatinine and 0.707 mg Albumin / mg Creatinine and 11.834 mg Albumin / mg Creatinine and 0.631 mg Albumin / mg Creatinine and 2.363 mg Albumin / mg Creatinine and 0.33 mg Albumin / mg Creatinine and 3.08 mg Albumin / mg Creatinine and 0.093 mg Albumin / mg Creatinine
Times lower ACR [2]: 8 times
LIVER CHOLESTEROL ESTERS [3]: 1.39 nmol CE/ mg protein and 2.25 nmol CE/ mg protein and 2.79 nmol CE/ mg protein and 8 nmol CE/ mg protein and 3.82 nmol CE/ mg protein and 8.05 nmol CE/ mg protein
LIVER TOTAL CHOLESTEROL [3]: 120 nmol Cholesterol/ mg protein and 119 nmol Cholesterol/ mg protein and 149 nmol Cholesterol/ mg protein and 163 nmol Cholesterol/ mg protein and 112 nmol Cholesterol/ mg protein and 195 nmol Cholesterol/ mg protein
LIVER TRIGLICERIDES [3]: 75 nmol Triglycerides/ mg protein and 54.7 nmol Triglycerides/ mg protein and 58 nmol Triglycerides/ mg protein and 69 nmol Triglycerides/ mg protein and 38 nmol Triglycerides/ mg protein and 54.5 nmol Triglycerides/ mg protein
Hepatic triglyceride content vs. vehicle-treated controls ([3]; ADR-challenged, 28 days): increased hepatic triglyceride content

O=C(N[C@@H]1CCCC[C@H]1O)c1cnc(OCC(F)(F)F)c(-c2ccc(Cl)c(Cl)c2)c1 [Cpd G]
ADR-induced increase of ALT and AST ([1]; 28 days): partially attenuated
ALT, Median (IQR) ([1]; ADR-induced nephropathy): 213 (105-239) U/L
ALT, Range ([1]; ADR-induced nephropathy): 90-317 U/L
AST, Median (IQR) ([1]; ADR-induced nephropathy): 213 (156-220) U/L
AST, Range ([1]; ADR-induced nephropathy): 124-401 U/L
HTC, Median (IQR) ([1]; ADR-induced nephropathy): 51 (48-52) %
HTC, Range ([1]; ADR-induced nephropathy): 46-57%
Hgb, Median (IQR) ([1]; ADR-induced nephropathy): 13 g/dL
Hgb, Range ([1]; ADR-induced nephropathy): 12.2 to 13.7 g/dL
WBC, Median (IQR) ([1]; ADR-induced nephropathy): 5.2 (3.4-6.5) x103cells/µL
WBC, Range ([1]; ADR-induced nephropathy): 2.5-6.5 x103cells/µL
HTC, QR(25) [1, 4]: 49.25%
Hgb, QR(25) [1, 4]: 12.6 g/dL
WBC, QR(25) [1, 4]: 3.85 x 10^3 cells/ul
HTC, QR(75) [1, 5]: 51.75%
Hgb, QR(75) [1, 5]: 13.4 g/dL
WBC, QR(75) [1, 5]: 6.425 x 10^3 cells/ul
HTC, Max [1, 6]: 57%
Hgb, Max [1, 6]: 13.7 g/dL
WBC, Max [1, 6]: 9.8 x 10^3 cells/ul
HTC, Median [1, 7]: 51%
Hgb, Median [1, 7]: 13.1 g/dL
WBC, Median [1, 7]: 5.45 x 10^3 cells/ul
HTC, Min [1, 8]: 46%
Hgb, Min [1, 8]: 12.2 g/dL
WBC, Min [1, 8]: 2.5 x 10^3 cells/ul
Alanine Aminotransferase (ALT) [1, 9]: 220 U/dL and 105 U/dL and 213 U/dL and 156 U/dL and 239 U/dL and 317 U/dL and 90 U/dL
Aspartate Aminotransferase (AST) [1, 9]: 217 U/dL and 156 U/dL and 401 U/dL and 213 U/dL and 220 U/dL and 124 U/dL
Hematocrit HTC [1, 9]: 57% and 51% and 54% and 47% and 46% and 49% and 52% and 50%
White Blood Cells WBC [1, 9]: 9.8 x 10^3 cells/ul and 5.5 x 10^3 cells/ul and 6.2 x 10^3 cells/ul and 2.5 x 10^3 cells/ul and 5.2 x 10^3 cells/ul and 6.5 x 10^3 cells/ul and 3.4 x 10^3 cells/ul and 5.4 x 10^3 cells/ul and 8.9 x 10^3 cells/ul
ABCA1 at the plasma membrane (ABCA1 protein): increased ABCA1 at the plasma membrane
ABCA1 in microsomal fractions (ABCA1 protein): did not increase ABCA1 in microsomal fractions
Effect on weight loss ([2]; 28 days after ADR): substantially reduced weight loss
Mice that showed no weight loss [2, 10]: 7 out of 10
Weight loss of the remaining 3 mice [2, 10]: less than 5%
ACR, median ([2]; 28 days after ADR): 0.6 mg albumin/mg creatinine and 0.576 mg albumin/mg creatinine
Weight (d28) [2]: 20 and 21 and 20.5 and 16 and 19 and 17
Weight Change (as % of weight at day 0), Median [2]: 0%
Weight Change (as % of weight at day 0) [2]: 5% and 2.5% and 0% and -9.1% and -5%
ACR values (mg Albumin / mg Creatinine) [2]: 3.053 mg Albumin / mg Creatinine and 3.33 mg Albumin / mg Creatinine and 0.105 mg Albumin / mg Creatinine and 0.292 mg Albumin / mg Creatinine and 4.643 mg Albumin / mg Creatinine and 4.983 mg Albumin / mg Creatinine and 0.09 mg Albumin / mg Creatinine and 0.018 mg Albumin / mg Creatinine and 0.86 mg Albumin / mg Creatinine and 0.271 mg Albumin / mg Creatinine
Times lower ACR [2]: 30 times
LIVER CHOLESTEROL ESTERS [3]: 2.88 nmol CE/ mg protein and 6.03 nmol CE/ mg protein and 6.11 nmol CE/ mg protein and 1.54 nmol CE/ mg protein and 4.33 nmol CE/ mg protein and 2.97 nmol CE/ mg protein and 3.06 nmol CE/ mg protein
LIVER TOTAL CHOLESTEROL [3]: 118 nmol Cholesterol/ mg protein and 122 nmol Cholesterol/ mg protein and 97.7 nmol Cholesterol/ mg protein and 114 nmol Cholesterol/ mg protein and 146 nmol Cholesterol/ mg protein
LIVER TRIGLICERIDES [3]: 35 nmol Triglycerides/ mg protein and 30 nmol Triglycerides/ mg protein and 48.4 nmol Triglycerides/ mg protein and 51 nmol Triglycerides/ mg protein and 39 nmol Triglycerides/ mg protein
